Tests used:
Assay type in all cases: in vivo
[1] = system: Phytophthora infestans; assay: whole plant or invertebrate; conditions: for control value (Test 1): tomato late blight, control value vs untreated section; for pest or weed control at 4 µg/mL: Phytophthora infestans, in Solanum lycopersicum, 96 h, read-out: control value (Test 1)
[2] = system: Plasmopara viticola; assay: Test 3: control effect against grape downy mildew; conditions: control value vs untreated section; for pest or weed control at 4 µg/mL: Plasmopara viticola, 120 h
Method in brief: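 Leaf lesion area, scored 5 days after inoculation and compared with untreated plants, gives the control value. Inoculation used P. viticola zoospores (1.0×10^4 units/ml) with a 16 hr moist incubation at 22° C. It followed by one day a spray of 4 ppm compound (wettable powder in Tween20) onto Neomuscat seedlings.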

[3] = system: Pseudoperonospora cubensis; assay: Test 2: control effect against cucumber downy mildew; conditions: control value vs untreated section; for pest or weed control at 4 µg/mL: Pseudoperonospora cubensis, 120 h
Method in brief: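 Protective test: zoospores (1.0×10^4 units/ml) misted one day after applying a 4 ppm suspension (wettable powder diluted in 1/5000 Tween20) to 2-leaf cucumber, Sagami hanjiro. After 16 hr at 22° C humid incubation, leaf lesion area read at day 5, expressed as control value versus untreated leaves.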

O=C(Cn1nc(C(F)(F)F)cc1C(F)(F)F)N1CCC(c2nc(C3OCc4cccc(OC(F)F)c4CO3)cs2)CC1 (stereo not drawn) [Compound 1-137]
control value (Test 1) [1]: 100 | control value (Test 3) [2]: 100 | control value (Test 2) [3]: 100

CS(=O)(=O)Oc1ccc2c(c1)COC(c1csc(C3CCN(C(=O)Cn4nc(C(F)F)cc4C(F)F)CC3)n1)OC2 (stereo not drawn) [Compound 1-138]
control value (Test 1) [1]: 100 | control value (Test 3) [2]: 100 | control value (Test 2) [3]: 100

CS(=O)(=O)Oc1ccc2c(c1)COC(c1csc(C3CCN(C(=O)Cn4nc(C(F)(F)F)cc4C(F)(F)F)CC3)n1)OC2 (stereo not drawn) [Compound 1-139]
control value (Test 1) [1]: 100 | control value (Test 3) [2]: 100 | control value (Test 2) [3]: 100

COc1cccc2c1COC(c1csc(C3CCN(C(=O)Cn4nc(C(F)F)cc4C(F)F)CC3)n1)OC2 (stereo not drawn) [Compound 1-141]
control value (Test 1) [1]: 100 | control value (Test 3) [2]: 100 | control value (Test 2) [3]: 100

COc1ccc(F)c2c1COC(c1csc(C3CCN(C(=O)Cn4nc(C(F)(F)F)cc4C(F)(F)F)CC3)n1)OC2 (stereo not drawn) [Compound 1-142]
control value (Test 1) [1]: 100 | control value (Test 3) [2]: 100 | control value (Test 2) [3]: 100

Cc1cc(C(F)(F)F)nn1CC(=O)N1CCC(c2nc(C3OCc4c(OC(F)F)ccc(OS(C)(=O)=O)c4CO3)cs2)CC1 (stereo not drawn) [Compound 1-143]
control value (Test 1) [1]: 100 | control value (Test 3) [2]: 100 | control value (Test 2) [3]: 100

O=C(Cn1nc(C(F)F)cc1C(F)F)N1CCC(c2nc(C3OCc4cccc(C=NO)c4CO3)cs2)CC1 (stereo not drawn) [Compound 1-145]
control value (Test 1) [1]: 100 | control value (Test 3) [2]: 100 | control value (Test 2) [3]: 100

CS(=O)(=O)Oc1ccc(OS(C)(=O)=O)c2c1COC(c1csc(C3CCN(C(=O)Cn4nc(C(F)F)cc4C(F)F)CC3)n1)OC2 [Compound 1-146]
control value (Test 1) [1]: 100 | control value (Test 3) [2]: 100 | control value (Test 2) [3]: 100

CS(=O)(=O)Oc1ccc(OS(C)(=O)=O)c2c1COC(c1csc(C3CCN(C(=O)Cn4nc(C(F)(F)F)cc4C(F)(F)F)CC3)n1)OC2 [Compound 1-147, 4-[4-[6,9-bis(methylsulfonyloxy)-1,5-dihydro-3H-2,4-benzodioxepin-3-yl]-2-thiazolyl]-1-[2-[3,5-bis(trifluoromethyl)-1H-pyrazole-1-yl]acetyl]piperidine]
pest or weed control at 4 µg/mL [1]: 90% | pest or weed control at 4 µg/mL [2]: 70% | pest or weed control at 4 µg/mL [3]: 90%

N#Cc1cccc2c1COC(c1csc(C3CCN(C(=O)Cn4nc(C(F)F)cc4C(F)F)CC3)n1)OC2 (stereo not drawn) [Compound 1-148]
control value (Test 1) [1]: 100 | control value (Test 3) [2]: 100 | control value (Test 2) [3]: 100

O=C(Cn1nc(C(F)(F)F)cc1C(F)(F)F)N1CCC(c2nc(C3OCc4cccc(C=NO)c4CO3)cs2)CC1 (stereo not drawn) [Compound 1-149]
control value (Test 1) [1]: 100 | control value (Test 3) [2]: 100 | control value (Test 2) [3]: 100

N#Cc1cccc2c1COC(c1csc(C3CCN(C(=O)Cn4nc(C(F)(F)F)cc4C(F)(F)F)CC3)n1)OC2 (stereo not drawn) [Compound 1-150]
control value (Test 1) [1]: 100 | control value (Test 3) [2]: 100 | control value (Test 2) [3]: 100

CS(=O)(=O)Oc1cccc2c1COC(c1csc(N3CCN(C(=O)Cn4nc(C(F)F)cc4C(F)F)CC3)n1)OC2 (stereo not drawn) [Compound 1-151]
control value (Test 1) [1]: 100 | control value (Test 3) [2]: 100 | control value (Test 2) [3]: 100

Cc1cc(C(F)(F)F)nn1C(C)C(=O)N1CCC(c2nc(C3OCc4cccc(OS(C)(=O)=O)c4CO3)cs2)CC1 (stereo not drawn) [Compound 1-152]
control value (Test 1) [1]: 100 | control value (Test 3) [2]: 100 | control value (Test 2) [3]: 100

Cc1cc(C(F)F)nn1CC(=O)N1CCC(c2nc(C3OCc4c(F)ccc(OS(C)(=O)=O)c4CO3)cs2)CC1 (stereo not drawn) [Compound 1-153]
control value (Test 1) [1]: 100 | control value (Test 3) [2]: 100 | control value (Test 2) [3]: 100

Cc1cc(C(F)(F)F)nn1CC(=O)N1CCC(c2nc(C3(C)OCc4c(F)ccc(OS(C)(=O)=O)c4CO3)cs2)CC1 (stereo not drawn) [Compound 1-154]
control value (Test 1) [1]: 90 | control value (Test 3) [2]: 100 | control value (Test 2) [3]: 100

Cc1cc(C(F)(F)F)nn1C(F)(F)C(=O)N1CCC(c2nc(C3OCc4c(F)ccc(OS(C)(=O)=O)c4CO3)cs2)CC1 (stereo not drawn) [Compound 1-155]
control value (Test 1) [1]: 100 | control value (Test 3) [2]: 100 | control value (Test 2) [3]: 100

Cc1cc(C(F)(F)F)nn1C(C)C(=O)N1CCC(c2nc(C3OCc4c(F)ccc(OS(C)(=O)=O)c4CO3)cs2)CC1 (stereo not drawn) [Compound 1-156]
control value (Test 1) [1]: 100 | control value (Test 3) [2]: 100 | control value (Test 2) [3]: 100

Cc1cc(C(F)(F)F)nn1CC(=O)N1CCC(c2nc(C3OCc4c(F)ccc(OS(C)(=O)=O)c4CO3)cs2)C(C)C1 (stereo not drawn) [Compound 1-157]
control value (Test 1) [1]: 100 | control value (Test 3) [2]: 100 | control value (Test 2) [3]: 100

Cc1cc(C(F)(F)F)nn1CC(=O)N1CCC(c2nc(C3OCc4c(F)ccc(OS(C)(=O)=O)c4CO3)cs2)CC1C (stereo not drawn) [Compound 1-159]
control value (Test 1) [1]: 100 | control value (Test 3) [2]: 100 | control value (Test 2) [3]: 100

CC(C(=O)N1CCC(c2nc(C3OCc4c(F)ccc(OS(C)(=O)=O)c4CO3)cs2)CC1)n1nc(C(F)F)cc1C(F)F (stereo not drawn) [Compound 1-160]
control value (Test 1) [1]: 100 | control value (Test 3) [2]: 100 | control value (Test 2) [3]: 100

Cc1cc(C(F)(F)F)nn1CC(=O)N1CCC(c2nc(C3OCc4c(O)ccc(F)c4CO3)cs2)CC1 (stereo not drawn) [Compound 1-161]
control value (Test 1) [1]: 100 | control value (Test 3) [2]: 100 | control value (Test 2) [3]: 100

Cc1ccc(C)c(CC(=O)N2CCC(c3nc(C4OCc5c(F)ccc(F)c5CO4)cs3)CC2)c1 [Compound 2-6]
control value (Test 1) [1]: 100 | control value (Test 3) [2]: 100 | control value (Test 2) [3]: 100

Cc1ccc(C)c(CC(=O)N2CCC(c3nc(C4OCc5c(F)ccc(OS(C)(=O)=O)c5CO4)cs3)CC2)c1 (stereo not drawn) [Compound 2-8]
control value (Test 1) [1]: 100 | control value (Test 3) [2]: 100 | control value (Test 2) [3]: 100

COc1ccc([N+](=O)[O-])c2c1COC(c1csc(C3CCN(C(=O)Cc4cc(C)ccc4C)CC3)n1)OC2 (stereo not drawn) [Compound 2-9]
control value (Test 1) [1]: 100 | control value (Test 3) [2]: 100 | control value (Test 2) [3]: 100

Cc1ccc(C)c(CC(=O)N2CCC(c3nc(C4OCc5ccccc5CO4)cs3)CC2)c1 [Compound 2-11]
control value (Test 1) [1]: 100 | control value (Test 3) [2]: 100 | control value (Test 2) [3]: 100

CCCCS(=O)(=O)Oc1cccc2c1COC(c1csc(C3CCN(C(=O)Cc4cc(C)ccc4C)CC3)n1)OC2 (stereo not drawn) [Compound 2-12, 4-[4-(6-butylsulfonyloxy-1,5-dihydro-3H-2,4-benzodioxepin-3-yl)-2-thiazolyl]-1-[2-(2,5-dimethylphenyl)acetyl]piperidine]
pest or weed control at 4 µg/mL [1]: 80% | pest or weed control at 4 µg/mL [2]: 80% | pest or weed control at 4 µg/mL [3]: 90%

Cc1ccc(C)c(NC(=O)N2CCC(c3nc(C4OCc5c(F)ccc(OS(C)(=O)=O)c5CO4)cs3)CC2)c1 (stereo not drawn) [Compound 2-14]
control value (Test 1) [1]: 100 | control value (Test 3) [2]: 100 | control value (Test 2) [3]: 100

Cc1ccc(C)c(NC(=O)N2CCC(c3nc(C4OCc5c(F)ccc(F)c5CO4)cs3)CC2)c1 [Compound 2-15]
control value (Test 1) [1]: 100 | control value (Test 3) [2]: 100 | control value (Test 2) [3]: 100

CS(=O)(=O)Oc1ccc(F)c2c1COC(c1csc(C3CCN(C(=O)Cc4cc(Cl)ccc4Cl)CC3)n1)OC2 (stereo not drawn) [Compound 2-16]
control value (Test 1) [1]: 100 | control value (Test 3) [2]: 100 | control value (Test 2) [3]: 100

Cc1ccc(C)c(CC(=O)N2CCC(c3nc(C4OCc5cccc(Br)c5CO4)cs3)CC2)c1 (stereo not drawn) [Compound 2-17]
control value (Test 1) [1]: 90 | control value (Test 3) [2]: 100 | control value (Test 2) [3]: 100

O=C(Cc1cc(Cl)ccc1Cl)N1CCC(c2nc(C3OCc4ccc([N+](=O)[O-])cc4CO3)cs2)CC1 (stereo not drawn) [Compound 2-21]
control value (Test 1) [1]: 50 | control value (Test 3) [2]: 100 | control value (Test 2) [3]: 100

COc1ccc(Br)c2c1COC(c1csc(C3CCN(C(=O)Cc4cc(C)ccc4C)CC3)n1)OC2 (stereo not drawn) [Compound 2-24]
control value (Test 1) [1]: 100 | control value (Test 3) [2]: 100 | control value (Test 2) [3]: 100

COc1ccc(Br)c2c1COC(c1csc(C3CCN(C(=O)Cc4cc(Cl)ccc4Cl)CC3)n1)OC2 (stereo not drawn) [Compound 2-25]
control value (Test 1) [1]: 40 | control value (Test 3) [2]: 100 | control value (Test 2) [3]: 100

COc1ccc(OS(C)(=O)=O)c2c1COC(c1csc(C3CCN(C(=O)Cc4cc(Cl)ccc4Cl)CC3)n1)OC2 (stereo not drawn) [Compound 2-26]
control value (Test 1) [1]: 100 | control value (Test 3) [2]: 100 | control value (Test 2) [3]: 100

Cc1ccc(C)c(CC(=O)N2CCC(c3nc(C4OCc5c(F)c(F)c(F)c(F)c5CO4)cs3)CC2)c1 [Compound 2-27]
control value (Test 1) [1]: 100 | control value (Test 3) [2]: 100 | control value (Test 2) [3]: 100

COc1ccc(OS(C)(=O)=O)c2c1COC(c1csc(C3CCN(C(=O)Cc4cc(C)ccc4C)CC3)n1)OC2 (stereo not drawn) [Compound 2-28]
control value (Test 1) [1]: 90 | control value (Test 3) [2]: 100 | control value (Test 2) [3]: 100

CS(=O)(=O)Oc1cccc2c1COC(c1csc(C3CCN(C(=O)Cc4cc(C(F)(F)F)ccc4C(F)(F)F)CC3)n1)OC2 (stereo not drawn) [Compound 2-30, 4-[4-(6-methylsulfonyloxy-1,5-dihydro-3H-2,4-benzodioxepin-3-yl)-2-thiazolyl]-1-[2-[2,5-bis(trifluoromethyl)phenyl]acetyl]piperidine]
pest or weed control at 4 µg/mL [1]: 30% | pest or weed control at 4 µg/mL [2]: 100% | pest or weed control at 4 µg/mL [3]: 100%
